Data reported in the supplement of paper PMC10307832.

How the values were obtained:
Experiment in all cases: relative viability (nuclei count vs DMSO), 5 days (fraction); higher = more cells survive
Apatinib + Lapatinib = compound: N#CC1(c2ccc(NC(=O)c3cccnc3NCc3ccncc3)cc2)CCCC1 [Apatinib] + CS(=O)(=O)CCNCc1ccc(-c2ccc3ncnc(Nc4ccc(OCc5cccc(F)c5)c(Cl)c4)c3c2)o1 [Lapatinib] (partner 2 µM)
How it was run: (§1)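 A single step with final 0.05% Triton X-100, 1% formaldehyde and 1 ug/ml Hoechst fixed the cells and stained nuclei 5 days after treatment. Lung cancer cell lines in 1536-well plates had been treated by pin tool the day after seeding with one drug alone or a fixed anchor-drug dose plus five library-drug doses (not always all listed) in √10 steps, and nuclei were counted on 4× images. Relative viability is the ratio of nuclei in treated wells to nuclei in vehicle wells, taken as the median of duplicate plates.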

Metformin + Foretinib = compound: CN(C)C(=N)NC(=N)N [Metformin] + COc1cc2c(Oc3ccc(NC(=O)C4(C(=O)Nc5ccc(F)cc5)CC4)cc3F)ccnc2cc1OCCCN1CCOCC1 [Foretinib] (partner 0.25 µM)
How it was run: as §1

Apatinib + OSI-027 = compound: N#CC1(c2ccc(NC(=O)c3cccnc3NCc3ccncc3)cc2)CCCC1 [Apatinib] + COc1cccc2cc(-c3nc([C@H]4CC[C@H](C(=O)O)CC4)n4ncnc(N)c34)[nH]c12 [OSI-027] (partner 0.5 µM)
How it was run: as §1

Apatinib + Pemetrexed = compound: N#CC1(c2ccc(NC(=O)c3cccnc3NCc3ccncc3)cc2)CCCC1 [Apatinib] + Nc1nc2[nH]cc(CCc3ccc(C(=O)N[C@@H](CCC(=O)O)C(=O)O)cc3)c2c(=O)[nH]1 [Pemetrexed] (partner 0.2 µM)
How it was run: as §1

## LOU-NH91
Apatinib + Lapatinib; first compound 0.08 µM
  relative viability: 0.727
Apatinib + Lapatinib; first compound 0.253 µM
  relative viability: 0.726
Apatinib + Lapatinib; first compound 0.8 µM
  relative viability: 0.754
Apatinib + Lapatinib; first compound 2.53 µM
  relative viability: 0.712
Apatinib + Lapatinib; first compound 8 µM
  relative viability: 0.77
Metformin + Foretinib; first compound 10 µM
  relative viability: 1.03
Metformin + Foretinib; first compound 31.62 µM
  relative viability: 1.02
Metformin + Foretinib; first compound 100 µM
  relative viability: 1.03
Metformin + Foretinib; first compound 316.23 µM
  relative viability: 0.972
Metformin + Foretinib; first compound 1000 µM
  relative viability: 1.06
Apatinib + OSI-027; first compound 0.08 µM
  relative viability: 0.636
Apatinib + OSI-027; first compound 0.253 µM
  relative viability: 0.667
Apatinib + OSI-027; first compound 0.8 µM
  relative viability: 0.599
Apatinib + OSI-027; first compound 2.53 µM
  relative viability: 0.619
Apatinib + OSI-027; first compound 8 µM
  relative viability: 0.676
Apatinib + Pemetrexed; first compound 0.08 µM
  relative viability: 0.418
Apatinib + Pemetrexed; first compound 0.253 µM
  relative viability: 0.396
Apatinib + Pemetrexed; first compound 0.8 µM
  relative viability: 0.424
Apatinib + Pemetrexed; first compound 2.53 µM
  relative viability: 0.336
Apatinib + Pemetrexed; first compound 8 µM
  relative viability: 0.303

## LU99A
Apatinib + Lapatinib; first compound 0.08 µM
  relative viability: 1.02
Apatinib + Lapatinib; first compound 0.253 µM
  relative viability: 1.07
Apatinib + Lapatinib; first compound 0.8 µM
  relative viability: 0.969
Apatinib + Lapatinib; first compound 2.53 µM
  relative viability: 0.821
Apatinib + Lapatinib; first compound 8 µM
  relative viability: 0.954
Metformin + Foretinib; first compound 10 µM
  relative viability: 0.57
Metformin + Foretinib; first compound 31.62 µM
  relative viability: 0.676
Metformin + Foretinib; first compound 100 µM
  relative viability: 0.643
Metformin + Foretinib; first compound 316.23 µM
  relative viability: 0.596
Metformin + Foretinib; first compound 1000 µM
  relative viability: 0.677
Apatinib + OSI-027; first compound 0.08 µM
  relative viability: 0.317
Apatinib + OSI-027; first compound 0.253 µM
  relative viability: 0.277
Apatinib + OSI-027; first compound 0.8 µM
  relative viability: 0.259
Apatinib + OSI-027; first compound 2.53 µM
  relative viability: 0.243
Apatinib + OSI-027; first compound 8 µM
  relative viability: 0.263
Apatinib + Pemetrexed; first compound 0.08 µM
  relative viability: 0.189
Apatinib + Pemetrexed; first compound 0.253 µM
  relative viability: 0.198
Apatinib + Pemetrexed; first compound 0.8 µM
  relative viability: 0.183
Apatinib + Pemetrexed; first compound 2.53 µM
  relative viability: 0.174
Apatinib + Pemetrexed; first compound 8 µM
  relative viability: 0.212

## NCI-H1355
Apatinib + Lapatinib; first compound 0.08 µM
  relative viability: 1.06
Apatinib + Lapatinib; first compound 0.253 µM
  relative viability: 0.963
Apatinib + Lapatinib; first compound 0.8 µM
  relative viability: 0.973
Apatinib + Lapatinib; first compound 2.53 µM
  relative viability: 0.923
Apatinib + Lapatinib; first compound 8 µM
  relative viability: 0.944
Metformin + Foretinib; first compound 10 µM
  relative viability: 0.941
Metformin + Foretinib; first compound 31.62 µM
  relative viability: 1.05
Metformin + Foretinib; first compound 100 µM
  relative viability: 0.998
Metformin + Foretinib; first compound 316.23 µM
  relative viability: 0.972
Metformin + Foretinib; first compound 1000 µM
  relative viability: 0.99
Apatinib + OSI-027; first compound 0.08 µM
  relative viability: 0.391
Apatinib + OSI-027; first compound 0.253 µM
  relative viability: 0.396
Apatinib + OSI-027; first compound 0.8 µM
  relative viability: 0.394
Apatinib + OSI-027; first compound 2.53 µM
  relative viability: 0.374
Apatinib + OSI-027; first compound 8 µM
  relative viability: 0.364
Apatinib + Pemetrexed; first compound 0.08 µM
  relative viability: 1.09
Apatinib + Pemetrexed; first compound 0.253 µM
  relative viability: 1.01
Apatinib + Pemetrexed; first compound 0.8 µM
  relative viability: 1
Apatinib + Pemetrexed; first compound 2.53 µM
  relative viability: 0.898
Apatinib + Pemetrexed; first compound 8 µM
  relative viability: 0.918

## NCI-H2023
Apatinib + Lapatinib; first compound 0.08 µM
  relative viability: 0.751
Apatinib + Lapatinib; first compound 0.253 µM
  relative viability: 0.945
Apatinib + Lapatinib; first compound 0.8 µM
  relative viability: 0.911
Apatinib + Lapatinib; first compound 2.53 µM
  relative viability: 0.74
Apatinib + Lapatinib; first compound 8 µM
  relative viability: 0.737
Metformin + Foretinib; first compound 10 µM
  relative viability: 0.99
Metformin + Foretinib; first compound 31.62 µM
  relative viability: 0.828
Metformin + Foretinib; first compound 100 µM
  relative viability: 0.854
Metformin + Foretinib; first compound 316.23 µM
  relative viability: 0.909
Metformin + Foretinib; first compound 1000 µM
  relative viability: 0.47
Apatinib + OSI-027; first compound 0.08 µM
  relative viability: 0.499
Apatinib + OSI-027; first compound 0.253 µM
  relative viability: 0.42
Apatinib + OSI-027; first compound 0.8 µM
  relative viability: 0.342
Apatinib + OSI-027; first compound 2.53 µM
  relative viability: 0.296
Apatinib + OSI-027; first compound 8 µM
  relative viability: 0.207
Apatinib + Pemetrexed; first compound 0.08 µM
  relative viability: 0.212
Apatinib + Pemetrexed; first compound 0.253 µM
  relative viability: 0.278
Apatinib + Pemetrexed; first compound 0.8 µM
  relative viability: 0.2
Apatinib + Pemetrexed; first compound 2.53 µM
  relative viability: 0.191
Apatinib + Pemetrexed; first compound 8 µM
  relative viability: 0.204
